The record followed here is patent US8916702B2 (priority 2012, dated 2014).

Read-outs that look alike come from different tables or passages of the source.

In the experiment the test system is HCV pseudoparticles (genotype 1a HCV E1 and E2 envelope, H77C isolate). As to the kind of experiment: microbe, parasite or virus in culture. The class given is cell-based. To be noted: Hepatitis C virus.
Where [1] appears, read: Huh-7, 48 h, HCV pseudoparticle infection of Huh7 cells, luciferase 2 days after infection, average of duplicates.
Setting [2] is: Huh-7, 48 h, read-out: Activity (EC50 class), HCV pseudoparticle infection of Huh7 cells, luciferase 2 days after infection, EC50 expressed as class A/B.
[3] abbreviates: Huh-7, 48 h, read-out: Activity (EC50 class), HCV pseudoparticles, Huh7 cells, luciferase 2 days after infection, average of duplicates.
Setting [4] is: Huh-7, read-out: Activity (EC50 class), HCV pseudoparticles (genotype 1a, H77C) in Huh7 cells, EC50 expressed as class A/B.

Consider `CCOC(=O)[C@H](CCNC(=O)C(N)=O)NC(=O)c1ccc(Nc2nc(NC3(c4ccc(Cl)cc4)CC3)nc(OCC(F)(F)F)n2)cc1` [Compound 1028, (S)-ethyl 4-(2-amino-2-oxoacetamido)-2-(4-(4-(1-(4-chlorophenyl)cyclopropylamino)-6-(2,2,2-trifluoroethoxy)-1,3,5-triazin-2-ylamino)benzamido)butanoate], for which the EC50 was 0.4 nM under setting [1] and 0.01 to 10 nM under setting [2]. Consider `CC(C)(CNC(=O)C(=O)Nc1cccc(CC(=O)O)c1)CNC(=O)c1ccc(Nc2nc(NC3(c4ccc(Cl)cc4)CC3)nc(OCC(F)(F)F)n2)cc1` [Compound 1480], for which, under setting [2], the concentration for a half-maximal effect (EC50) was in the range of 0.01 to 10 nM. Take `COC(=O)[C@H](CNC(=O)C(=O)Nc1cccc(-n2ccnc2)c1)NC(=O)c1ccc(Nc2nc(NC3(c4ccc(Cl)cc4)CC3)nc(OCC(F)(F)F)n2)cc1` [Compound 3734]: the 50% effective concentration (EC50) under setting [3] was 0.01 to 10 nM. Regarding `O=C(Nc1cccc(F)c1)C(=O)N[C@H](CCNC(=O)c1ccc(Nc2nc(NC3(c4ccc(Cl)cc4)CC3)nc(OCC(F)(F)F)n2)cc1)C(=O)O` [Compound 3492, (R)-4-(4-((4-((1-(4-chlorophenyl)cyclopropyl)amino)-6-(2,2,2-trifluoroethoxy)-1,3,5-triazin-2-yl)amino)benzamido)-2-(2-((3-fluorophenyl)amino)-2-oxoacetamido)butanoic acid], the EC50 reads like this: (Huh-7, 48 h, HCV pseudoparticles (genotype 1a, H77C) in Huh7 cells, average of duplicate, luciferase 2 days after infection) 0.33 nM; under setting [4], 0.01 to 10 nM. Take `O=C(NCc1c(F)cccc1F)C(=O)NC[C@H](NC(=O)c1ccc(Nc2nc(NC3(c4ccc(Cl)cc4)CC3)nc(OCC(F)(F)F)n2)cc1)C(=O)O` [Compound 1170]: the EC50 under setting [2] was in the range of 0.01 to 10 nM. On the same count and under the same terms, for `COC(=O)[C@H](CNC(=O)C(=O)NCCn1cncn1)NC(=O)c1ccc(Nc2nc(NC3(c4ccc(Cl)cc4)CC3)nc(OCC(F)(F)F)n2)cc1` [Compound 1298] the value was 0.01 to 10 nM; for `COC(=O)[C@H](CCNC(=O)C(=O)NCCc1ccncc1)NC(=O)c1ccc(Nc2nc(NC3(c4ccc(Cl)cc4)CC3)nc(OCC(F)(F)F)n2)cc1` [Compound 1311], 0.01 to 10 nM. In the case of `COC(=O)[C@H](CNC(=O)C(=O)Nc1cccc(-n2cnnc2)c1)NC(=O)c1ccc(Nc2nc(NC3(c4ccc(Cl)cc4)CC3)nc(OCC(F)(F)F)n2)cc1` [Compound 3729], under setting [3], the half-maximal effective concentration (EC50) was 0.01 to 10 nM. As for `Cn1cnnc1-c1ccc(NC(=O)C(=O)NCCC(NC(=O)c2ccc(Nc3nc(NC4(c5ccc(Cl)cc5)CC4)nc(OCC(F)(F)F)n3)cc2)C(=O)O)cc1` (stereo not shown) [Compound 3538], the EC50 under setting [4] was in the range of 10 to 1000 nM. In the case of `O=C(NC[C@H](NC(=O)c1ccc(Nc2nc(NC3(c4ccc(Cl)cc4)CC3)nc(OCC(F)(F)F)n2)cc1)C(=O)O)C(=O)Nc1ccccc1F` [Compound 1361], under setting [2], the 50% effective concentration (EC50) fell in the range of 0.01 to 10 nM.

`COC(=O)[C@@H](CCNC(=O)C(=O)Nc1ccc(-c2noc(C)n2)cc1)NC(=O)c1ccc(Nc2nc(NC3(c4ccc(Cl)cc4)CC3)nc(OCC(F)(F)F)n2)cc1` [Compound 1529]: the EC50 under setting [2] was 0.01 to 10 nM. For `CC(C)c1ccc(NC(=O)C(=O)NCC(C)(C)CNC(=O)c2ccc(Nc3nc(NC4(c5ccc(Cl)cc5)CC4)nc(OCC(F)(F)F)n3)cc2)cc1` [Compound 1589], the EC50 under setting [2] lay in the range of 0.01 to 10 nM.

On to `CC(C)(C)OC(=O)NC1CCC(CNC(=O)C(=O)NCC[C@H](NC(=O)c2ccc(Nc3nc(NC4(c5ccc(Cl)cc5)CC4)nc(OCC(F)(F)F)n3)cc2)C(=O)O)CC1` (stereo partly shown) [Compound 1210], for which, under setting [2], the concentration for a half-maximal effect (EC50) was in the range of 0.01 to 10 nM. For `COC(=O)[C@H](CCNC(=O)C(=O)Nc1ccc(CCCl)cc1)NC(=O)c1ccc(Nc2nc(NC3(c4ccc(Cl)cc4)CC3)nc(OCC(F)(F)F)n2)cc1` [Compound 3115], the EC50 under setting [4] fell in the range of 0.01 to 10 nM. `COC(=O)[C@H](CNC(=O)C(=O)NCCc1cccnc1)NC(=O)c1ccc(Nc2nc(NC3(c4ccc(Cl)cc4)CC3)nc(OCC(F)(F)F)n2)cc1` [Compound 1293]: the concentration giving a half-maximal response (EC50) reads like this: under setting [1], 4.4 nM; under setting [2], 0.01 to 10 nM. With `CC(C)(CNC(=O)C(=O)Nc1ccccc1-c1nnco1)CNC(=O)c1ccc(Nc2nc(NC3(c4ccc(Cl)cc4)CC3)nc(OCC(F)(F)F)n2)cc1` [Compound 3246], under setting [4], the half-maximal effective concentration (EC50) fell in the range of 0.01 to 10 nM.

A word on the EC50: it is the concentration that produces a half-maximal response.
